Assay results taken from article PMC7179112, “Antimicrobial, Antioxidant, and Anticancer Activities of Some Novel Isoxazole Ring Containing Chalcone and Dihydropyrazole Derivatives” (Molecules, 2020).
Converted amounts (≈) assume the structure as drawn.

Assays:
Pseudomonas aeruginosa = assay: Antibacterial activity, serial tube dilution method; format: cell-based; details: Pseudomonas aeruginosa; Gram-negative; serial tube dilution; read-out: MIC P aeruginosa
Method: (§1) The target chalcones (17–31) and pyrazolines (32–46) were tested for their antimicrobial activities by serial tube dilution method against two types of bacterial and fungal strains (Table 1 and Table 2). The bacterial strains used for the testing, including Gram-positive Staphylococcus aureus and Gram-negative Pseudomonas aeruginosa, whereas the fungal strains employed were Aspergillus niger and Candida tropicalis.
(§2) The antibacterial and antifungal activity of the novel chalcones (17 to 31) and dihydropyrazoles (32 to 46) against the selected bacterial and fungal strains was assessed by following the procedure described in our previous paper.

Staphylococcus aureus = assay: as above; format: cell-based; details: Staphylococcus aureus; Gram-positive; serial tube dilution; read-out: MIC S aureus
Method: as §1, §2

[1] = test system: prostate cancer cell line, DU-145; assay: MTT assay anticancer activity; format: cell-based; details: for IC50: Homo sapiens, MTT assay, mean ± SD (n = 3); for Anticancer potency MIC: given as MIC in text/Figure 3
Method: All the 30 compounds were evaluated for their anticancer potency against the prostate cancer cell line, DU-145, employing colorimetric tetrazolium dye (MTT) assay. […] Among the disubstituted series 20–25, substitution at position 3 and 4 (compound 24) produced the best activity but was lower than the standard. […] Similar phenomena can be seen among the dihydropyrazole series.
The in vitro anticancer activity of chalcones (17 to 31) and dihydropyrazoles (32 to 46) was evaluated by the Mosmann’s MTT assay as described previously.

Aspergillus niger = assay: Antifungal activity, serial tube dilution method; format: cell-based
Method: as §1, §2

Candida tropicalis = assay: Antifungal activity, serial tube dilution method; format: cell-based; details: read-out: MIC C tropicalis
Method: as §1, §2

[2] = DPPH free radical scavenging assay; details: antioxidant activity; average of three independent experiments
Method: The antioxidant activity of all 30 compounds was assessed using 1,1-diphenyl-2-picrylhydrazine (DPPH) free radical scavenging assay and the results are the average of three independent experiments (Table 3). Gallic acid was employed as a positive control. […] In the disubstituted series (20–25), compound 25 with substitutions at position 3 and 5 on the phenyl ring gave the highest activity of 9 µg/mL.
The purpose of this study was to evaluate the antioxidant activity of chalcones and pyrazolines using the DPPH free radical assay. The percentage of antioxidant activity (AA%) of all the compounds was assessed by the DPPH free radical assay. The measurement of the DPPH radical scavenging activity was performed according to methodology described by Brand-Williams et al. The samples were reacted with the stable DPPH radical in an ethanol solution. A 0.1 mM solution of DPPH was prepared by dissolving DPPH in methanol. Gallic acid was taken as a reference standard and different concentrations of test samples (5–100 µg/mL) and standard (1.0, 2.5, and 5.0 µg/mL) were prepared using methanol. One milliliter of 0.1 mM DPPH solution was added to 3 mL of all concentrations of test samples and standard separately. These mixtures were kept in dark for about 30 min and the absorbance was measured at 517 nm. The capability to scavenge the DPPH radical was calculated using the formula:(1) DPPH scavanged (%)= Absorbance of control−Absorbance of sample/Absorbance of control∗100 when DPPH reacted with an antioxidant compound and was reduced, the change in color (from deep violet to light yellow) was read [Absorbance (Abs)] at 517 nm after […] of reaction using a UV-VIS spectrophotometer.

Human Normal Cells (L02) = assay: MTT assay toxicity on normal cells; format: cell-based
[3] = test system: Staphylococcus aureus and Pseudomonas aeruginosa; assay: Antibacterial activity (strain not named); format: cell-based; details: for MIC: text/figure value, strain not named
Method: as §1, §2

[4] = test system: Aspergillus niger and Candida tropicalis; assay: Antifungal activity (strain not named); format: cell-based
Method: as §1, §2

[5] = text/figure value, strain not named

SMILES	MIC (Pseudomonas aeruginosa)	MIC (Staphylococcus aureus)	IC50 [1]	MIC (Aspergillus niger)	MIC (Candida tropicalis)	DPPH assay IC50 [2]	IC50 (Human Normal Cells (L02))	Anticancer potency MIC [1]	fold improvement of antibacterial activity vs. 41 ([3]; 45 (MIC 8) vs. 41 (MIC 64))	MIC [3]	MIC [4, 5]	IC50 [4]	antifungal MIC [4, 5]
COc1ccc(/C=C/C(=O)c2ccno2)c(OC)c1 [Compound 21]	4 µg/mL (≈ 15.4 µM)	2 µg/mL (≈ 7.71 µM)	29 ± 2 µg/mL (≈ 112 µM)	8 µg/mL (≈ 30.9 µM)	16 µg/mL (≈ 61.7 µM)	18 ± 2 µg/mL	> 40 µg/mL	–	–	–	–	–	–
COc1cccc(/C=C/C(=O)c2ccno2)c1OC [Compound 20]	64 µg/mL (≈ 247 µM)	32 µg/mL (≈ 123 µM)	22 ± 1 µg/mL (≈ 84.9 µM)	64 µg/mL (≈ 247 µM)	32 µg/mL (≈ 123 µM)	24 ± 1 µg/mL	> 40 µg/mL	–	–	–	–	–	–
COc1cc(C2CC(c3ccno3)=NN2C(N)=O)cc(OC)c1OC (stereo not shown) [Compound 44]	256 µg/mL (≈ 739 µM)	64 µg/mL (≈ 185 µM)	5 ± 2 µg/mL (≈ 14.4 µM)	16 µg/mL (≈ 46.2 µM)	16 µg/mL (≈ 46.2 µM)	12 ± 2 µg/mL	> 40 µg/mL	–	–	–	–	–	–
COc1cc(OC)c(C2CC(c3ccno3)=NN2C(N)=O)cc1OC (stereo not shown) [Compound 42]	16 µg/mL (≈ 46.2 µM)	32 µg/mL (≈ 92.4 µM)	18 ± 2 µg/mL (≈ 52 µM)	16 µg/mL (≈ 46.2 µM)	16 µg/mL (≈ 46.2 µM)	10 ± 2 µg/mL	> 40 µg/mL	–	–	–	–	–	–
COc1ccc(/C=C/C(=O)c2ccno2)cc1 [Compound 17]	8 µg/mL (≈ 34.9 µM)	4 µg/mL (≈ 17.4 µM)	32 ± 2 µg/mL (≈ 140 µM)	8 µg/mL (≈ 34.9 µM)	8 µg/mL (≈ 34.9 µM)	33 ± 1 µg/mL	> 40 µg/mL	–	–	–	–	–	–
COc1ccc(C2CC(c3ccno3)=NN2C(N)=O)c(F)c1OC (stereo not shown) [Compound 45]	8 µg/mL (≈ 23.9 µM)	8 µg/mL (≈ 23.9 µM)	2 ± 1 µg/mL (≈ 5.98 µM)	0.5 µg/mL (≈ 1.5 µM)	1 µg/mL (≈ 2.99 µM)	55 ± 2 µg/mL	> 40 µg/mL	2 µg/mL	8 fold	8 µg/mL (≈ 23.9 µM)	–	–	–
COc1ccc(OC)c(C2CC(c3ccno3)=NN2C(N)=O)c1 (stereo not shown) [Compound 37]	32 µg/mL (≈ 101 µM)	64 µg/mL (≈ 202 µM)	31 ± 2 µg/mL (≈ 98 µM)	32 µg/mL (≈ 101 µM)	32 µg/mL (≈ 101 µM)	39 ± 2 µg/mL	> 40 µg/mL	–	–	–	–	–	–
COc1cccc(OC)c1/C=C/C(=O)c1ccno1 [Compound 23]	4 µg/mL (≈ 15.4 µM)	4 µg/mL (≈ 15.4 µM)	33 ± 2 µg/mL (≈ 127 µM)	4 µg/mL (≈ 15.4 µM)	4 µg/mL (≈ 15.4 µM)	16 ± 1 µg/mL	> 40 µg/mL	–	–	–	–	–	–
COc1ccc(C2CC(c3ccno3)=NN2C(N)=O)cc1OC (stereo not shown) [Compound 39]	64 µg/mL (≈ 202 µM)	128 µg/mL (≈ 405 µM)	4 ± 2 µg/mL (≈ 12.6 µM)	32 µg/mL (≈ 101 µM)	32 µg/mL (≈ 101 µM)	49 ± 1 µg/mL	> 40 µg/mL	4 µg/mL	–	–	–	–	–
COc1ccc(C2CC(c3ccno3)=NN2C(N)=O)cc1 (stereo not shown) [Compound 32]	16 µg/mL (≈ 55.9 µM)	16 µg/mL (≈ 55.9 µM)	28 ± 1 µg/mL (≈ 97.8 µM)	4 µg/mL (≈ 14 µM)	4 µg/mL (≈ 14 µM)	44 ± 1 µg/mL	> 40 µg/mL	–	–	–	4 µg/mL (≈ 14 µM)	–	–
COc1cc(OC)cc(C2CC(c3ccno3)=NN2C(N)=O)c1 (stereo not shown) [Compound 40]	256 µg/mL (≈ 809 µM)	256 µg/mL (≈ 809 µM)	8 ± 2 µg/mL (≈ 25.3 µM)	64 µg/mL (≈ 202 µM)	64 µg/mL (≈ 202 µM)	12 ± 1 µg/mL	> 40 µg/mL	–	–	–	–	–	–
COc1ccc(OC)c(/C=C/C(=O)c2ccno2)c1 [Compound 22]	32 µg/mL (≈ 123 µM)	32 µg/mL (≈ 123 µM)	38 ± 1 µg/mL (≈ 147 µM)	64 µg/mL (≈ 247 µM)	64 µg/mL (≈ 247 µM)	26 ± 2 µg/mL	> 40 µg/mL	–	–	–	–	–	–
O=C(O)c1cc(O)c(O)c(O)c1 [Gallic acid, reference compound]	–	–	–	–	–	Gallic acid 5 ± 1 µg/mL	–	–	–	–	–	–	–
CC(=O)O[C@@]12CO[C@@H]1C[C@H](O)[C@@]1(C)C(=O)[C@H](O)C3=C(C)[C@@H](OC(=O)[C@H](O)[C@@H](NC(=O)OC(C)(C)C)c4ccccc4)C[C@@](O)([C@@H](OC(=O)c4ccccc4)[C@H]21)C3(C)C [Docetaxel, reference compound]	–	–	5 µg/mL (≈ 6.19 µM)	–	–	–	–	5 µg/mL	–	–	–	–	–
COc1ccccc1C1CC(c2ccno2)=NN1C(N)=O (stereo not shown) [Compound 34]	16 µg/mL (≈ 55.9 µM)	16 µg/mL (≈ 55.9 µM)	32 ± 2 µg/mL (≈ 112 µM)	8 µg/mL (≈ 27.9 µM)	8 µg/mL (≈ 27.9 µM)	38 ± 2 µg/mL	> 40 µg/mL	–	–	–	8 µg/mL (≈ 27.9 µM)	–	–
COc1cccc(OC)c1C1CC(c2ccno2)=NN1C(N)=O (stereo not shown) [Compound 38]	16 µg/mL (≈ 50.6 µM)	32 µg/mL (≈ 101 µM)	20 ± 2 µg/mL (≈ 63.2 µM)	2 µg/mL (≈ 6.32 µM)	2 µg/mL (≈ 6.32 µM)	28 ± 1 µg/mL	> 40 µg/mL	–	–	–	2 µg/mL (≈ 6.32 µM)	–	–
COc1ccccc1/C=C/C(=O)c1ccno1 [Compound 19]	4 µg/mL (≈ 17.4 µM)	4 µg/mL (≈ 17.4 µM)	36 ± 1 µg/mL (≈ 157 µM)	8 µg/mL (≈ 34.9 µM)	16 µg/mL (≈ 69.8 µM)	32 ± 2 µg/mL	> 40 µg/mL	–	–	–	–	–	–
COc1cc(Cl)c(C2CC(c3ccno3)=NN2C(N)=O)c(OC)c1 (stereo not shown) [Compound 46]	8 µg/mL (≈ 22.8 µM)	8 µg/mL (≈ 22.8 µM)	12 ± 2 µg/mL (≈ 34.2 µM)	0.5 µg/mL (≈ 1.43 µM)	0.5 µg/mL (≈ 1.43 µM)	62 ± 1 µg/mL	> 40 µg/mL	–	–	8 µg/mL (≈ 22.8 µM)	–	2 ± 1 µg/mL (≈ 5.7 µM)	0.5 µg/mL
COc1cccc(C2CC(c3ccno3)=NN2C(N)=O)c1 (stereo not shown) [Compound 33]	128 µg/mL (≈ 447 µM)	128 µg/mL (≈ 447 µM)	18 ± 2 µg/mL (≈ 62.9 µM)	64 µg/mL (≈ 224 µM)	64 µg/mL (≈ 224 µM)	51 ± 2 µg/mL	> 40 µg/mL	–	–	–	–	–	–
COc1cccc(C2CC(c3ccno3)=NN2C(N)=O)c1OC (stereo not shown) [Compound 35]	64 µg/mL (≈ 202 µM)	64 µg/mL (≈ 202 µM)	16 ± 2 µg/mL (≈ 50.6 µM)	16 µg/mL (≈ 50.6 µM)	16 µg/mL (≈ 50.6 µM)	32 ± 1 µg/mL	> 40 µg/mL	–	–	–	–	–	–
COc1ccc(C2CC(c3ccno3)=NN2C(N)=O)c(OC)c1OC (stereo not shown) [Compound 41]	128 µg/mL (≈ 370 µM)	64 µg/mL (≈ 185 µM)	9 ± 1 µg/mL (≈ 26 µM)	64 µg/mL (≈ 185 µM)	64 µg/mL (≈ 185 µM)	8 ± 1 µg/mL	> 40 µg/mL	–	–	64 µg/mL (≈ 185 µM)	–	–	–
COc1ccc(C2CC(c3ccno3)=NN2C(N)=O)c(OC)c1 (stereo not shown) [Compound 36]	8 µg/mL (≈ 25.3 µM)	8 µg/mL (≈ 25.3 µM)	26 ± 2 µg/mL (≈ 82.2 µM)	4 µg/mL (≈ 12.6 µM)	8 µg/mL (≈ 25.3 µM)	25 ± 2 µg/mL	> 40 µg/mL	–	–	–	–	–	–
O=C(O)c1cn(C2CC2)c2cc(N3CCNCC3)c(F)cc2c1=O [Ciprofloxacin, reference compound]	2 µg/mL (≈ 6.04 µM)	2 µg/mL (≈ 6.04 µM)	–	–	–	–	–	–	–	–	–	–	–
COc1ccc(/C=C/C(=O)c2ccno2)cc1OC [Compound 24]	32 µg/mL (≈ 123 µM)	64 µg/mL (≈ 247 µM)	6 ± 2 µg/mL (≈ 23.1 µM)	128 µg/mL (≈ 494 µM)	64 µg/mL (≈ 247 µM)	29 ± 1 µg/mL	> 40 µg/mL	–	–	–	–	–	–
COc1cc(OC)c(OC)cc1/C=C/C(=O)c1ccno1 [Compound 27]	16 µg/mL (≈ 55.3 µM)	16 µg/mL (≈ 55.3 µM)	26 ± 3 µg/mL (≈ 89.9 µM)	32 µg/mL (≈ 111 µM)	32 µg/mL (≈ 111 µM)	7 ± 2 µg/mL	> 40 µg/mL	–	–	–	–	–	–
COc1cc(Cl)c(/C=C/C(=O)c2ccno2)c(OC)c1 [Compound 31]	2 µg/mL (≈ 6.81 µM)	2 µg/mL (≈ 6.81 µM)	16 ± 2 µg/mL (≈ 54.5 µM)	4 µg/mL (≈ 13.6 µM)	4 µg/mL (≈ 13.6 µM)	48 ± 1 µg/mL	> 40 µg/mL	–	–	–	–	–	–
OC(Cn1cncn1)(Cn1cncn1)c1ccc(F)cc1F [Fluconazole, reference compound]	–	–	–	1 µg/mL (≈ 3.27 µM)	1 µg/mL (≈ 3.27 µM)	–	–	–	–	–	1 µg/mL (≈ 3.27 µM)	–	–
COc1ccc(/C=C/C(=O)c2ccno2)c(F)c1OC [Compound 30]	4 µg/mL (≈ 14.4 µM)	4 µg/mL (≈ 14.4 µM)	5 ± 2 µg/mL (≈ 18 µM)	16 µg/mL (≈ 57.7 µM)	16 µg/mL (≈ 57.7 µM)	45 ± 2 µg/mL	> 40 µg/mL	–	–	–	–	–	–
